# Laboratory results reported in patent US20240150300A1, “S-CONFIGURATION-CONTAINING AMINO BENZAMIDE PYRIDAZINONE COMPOUND, PREPARATION METHOD THEREFOR, AND PHARMACEUTICAL COMPOSITION AND APPLICATION THEREOF” (SHANGHAI INSTITUTE OF MATERIA MEDICA, CHINESE ACADEMY OF …, priority 2021, published 2024).
# Key:
# HDAC1 = HDAC1 (Homo sapiens (Human), UniProt Q13547); assay: In vitro histone deacetylase activity assay (HTRF), HDAC1; format: biochemical; conditions: H3(1-21) K9Ac biotin substrate
# Protocol: (§1) Human recombinant HDAC family proteins with His and GST tags were expressed using insect baculovirus expression system, and a biologically active HDAC family recombinant protein was obtained through Ni affinity column protein purification. HTRF detection method was used with H3(1-21) K9Ac biotin as the substrate. […] Briefly, 20 μl of the activity testing system included the HDAC substrate (0.2 μM. 4 μl), the Human Recombinant Protein HDAC (2-5 ng)/μl.
# SKM-1 cells = assay: Antiproliferative activity, CCK-8, SKM-1; format: cell-based, human; conditions: 72 h
# Protocol: (§2) The tumor cells used were purchased from commercial cell banks (HCT116 purchased from ATCC, SKM 1 purchased from JCRB). The growth inhibition of cells was detected using the CCK-8 method. The specific steps were as follows. Cells in the logarithmic growth phase were seeded into a 96 well culture plate at an appropriate density, with 90 μL/well. After overnight cultivation, different concentrations of drugs were added for treatment for 72 h, with each concentration in triplicate, and corresponding concentration of vehicle control and cell-free blank wells were also set. After the treatment, 10 μL of CCK-8 was added to each well and the plate was incubated in an incubator for 2-4 hours, and the optical density (OD value) at a wavelength of 450 nm was measured using a SpectraMax 190 microplate reader. […] The experiment was repeated twice, and the mean value and SD were calculated.
# With reference to HCT-116 cell proliferation inhibition test method, the inhibitory activity of the compounds on the proliferation of human myelodysplastic syndrome cell SKM-1 was tested.
# HDAC2 = HDAC2 (Homo sapiens (Human), UniProt Q92769); assay: HDAC subtype inhibitory activity (HTRF), HDAC2; format: biochemical
# Protocol: as §1
# HDAC10 = HDAC10 (Homo sapiens (Human), UniProt Q969S8); assay: HDAC subtype inhibitory activity (HTRF), HDAC10; format: biochemical
# Protocol: as §1
# MV-4-11 = assay: Antiproliferative activity, CCK-8, MV-4-11; format: cell-based; conditions: MV-4-11, Acute monocyte/Monocyte leukemia; read-out: Cytotoxicity (IC50 μM)
# Protocol: as §2
# (§3) The testing method for antiproliferative activity was the same as that mentioned in Pharmacological Experiment Example 2, and the results are shown in Table 4 and FIGS. 2-3.
# OCI-AML3 = assay: Antiproliferative activity, CCK-8, OCI-AML3; format: cell-based; conditions: OCI-AML3, Human acute myeloid leukemia; read-out: Cytotoxicity (IC50 μM)
# Protocol: as §2, §3
# OCI-LY-3 = assay: Antiproliferative activity, CCK-8, OCI-LY-3; format: cell-based; conditions: OCI-LY-3, Diffuse large B-cell lymphoma; read-out: Cytotoxicity (IC50 μM)
# Protocol: as §2, §3
# U-2932 = assay: Antiproliferative activity, CCK-8, U-2932; format: cell-based; conditions: U-2932, Diffuse large B-cell lymphoma; read-out: Cytotoxicity (IC50 μM)
# Protocol: as §2, §3
# HH = assay: Antiproliferative activity, CCK-8, HH; format: cell-based; conditions: Primary cutaneous T-cell non Hodgkin lymphoma, read-out: Cytotoxicity (IC50 μM)
# Protocol: as §2, §3
# OCI-LY-10 = assay: Antiproliferative activity, CCK-8, OCI-LY-10; format: cell-based; conditions: OCI-LY-10, Diffuse large B-cell lymphoma; read-out: Cytotoxicity (IC50 μM)
# Protocol: as §2, §3
# Z138 = assay: Antiproliferative activity, CCK-8, Z138; format: cell-based; conditions: Z138, Human mantle cell lymphoma; read-out: Cytotoxicity (IC50 μM)
# Protocol: as §2, §3
# CCRF-CEM = assay: Antiproliferative activity, CCK-8, CCRF-CEM; format: cell-based; conditions: T-cell acute lymphoblastic leukemia, read-out: Cytotoxicity (IC50 μM)
# Protocol: as §2, §3
# RS4; 11 = assay: Antiproliferative activity, CCK-8, RS4; 11; format: cell-based; conditions: 11, Acute lymphoblastic leukemia, read-out: Cytotoxicity (IC50 μM)
# Protocol: as §2, §3
# U937 = assay: Antiproliferative activity, CCK-8, U937; format: cell-based; conditions: U937, Human tissue cell lymphoma; read-out: Cytotoxicity (IC50 μM)
# Protocol: as §2, §3
# OPM-2 = assay: Antiproliferative activity, CCK-8, OPM-2; format: cell-based; conditions: OPM-2, Human multiple myeloid leukemia; read-out: Cytotoxicity (IC50 μM)
# Protocol: as §2, §3
# KARPAS-1106P = assay: Antiproliferative activity, CCK-8, KARPAS-1106P; format: cell-based; conditions: Primary mediastinal large B-cell lymphoma, read-out: Cytotoxicity (IC50 μM)
# Protocol: as §2, §3
# NOMO-1 = assay: Antiproliferative activity, CCK-8, NOMO-1; format: cell-based; conditions: NOMO-1, Acute monocytic leukemia; read-out: Cytotoxicity (IC50 μM)
# Protocol: as §2, §3
# SU-DHL-6 = assay: Antiproliferative activity, CCK-8, SU-DHL-6; format: cell-based; conditions: SU-DHL-6, Diffuse large B-cell lymphoma; read-out: Cytotoxicity (IC50 μM)
# Protocol: as §2, §3
# HDLM-2 = assay: Antiproliferative activity, CCK-8, HDLM-2; format: cell-based; conditions: HDLM-2, Hodgkin's lymphoma; read-out: Cytotoxicity (IC50 μM)
# Protocol: as §2, §3
# H9 = assay: Antiproliferative activity, CCK-8, H9; format: cell-based; conditions: H9, Human T lymphocyte line; read-out: Cytotoxicity (IC50 μM)
# Protocol: as §2, §3
# HuT78 = assay: Antiproliferative activity, CCK-8, HuT78; format: cell-based; conditions: HuT78, Human T-lymphocytic leukemia; read-out: Cytotoxicity (IC50 μM)
# Protocol: as §2, §3
# TMD8 = assay: Antiproliferative activity, CCK-8, TMD8; format: cell-based; conditions: TMD8, Diffuse large B-cell lymphoma; read-out: Cytotoxicity (IC50 μM)
# Protocol: as §2, §3
# KG-1 = assay: Antiproliferative activity, CCK-8, KG-1; format: cell-based; conditions: KG-1, Acute myeloid leukemia; read-out: Cytotoxicity (IC50 μM)
# Protocol: as §2, §3
# CAKI-1 = assay: Antiproliferative activity, CCK-8, CAKI-1; format: cell-based; conditions: CAKI-1, Renal cell carcinoma; read-out: Cytotoxicity (IC50 μM)
# Protocol: as §2, §3
# SNU-16 = assay: Antiproliferative activity, CCK-8, SNU-16; format: cell-based; conditions: SNU-16, gastric cancer; read-out: Cytotoxicity (IC50 μM)
# Protocol: as §2, §3
# SNU-5 = assay: Antiproliferative activity, CCK-8, SNU-5; format: cell-based; conditions: SNU-5, Gastric cancer; read-out: Cytotoxicity (IC50 μM)
# Protocol: as §2, §3
# A2058 = assay: Antiproliferative activity, CCK-8, A2058; format: cell-based; conditions: A2058, Melanoma; read-out: Cytotoxicity (IC50 μM)
# Protocol: as §2, §3
# SK-MEL-2 = assay: Antiproliferative activity, CCK-8, SK-MEL-2; format: cell-based; conditions: SK-MEL-2, Melanoma; read-out: Cytotoxicity (IC50 μM)
# Protocol: as §2, §3
# [1] = system: human myelodysplastic syndrome cells SKM-1 transplanted tumor; assay: SKM-1 NOD/SCID mice transplanted tumor model; format: in vivo; conditions: oral 60 mg/kg qd, 18 days
# HDAC10, sequence (Q969S8 whole entry): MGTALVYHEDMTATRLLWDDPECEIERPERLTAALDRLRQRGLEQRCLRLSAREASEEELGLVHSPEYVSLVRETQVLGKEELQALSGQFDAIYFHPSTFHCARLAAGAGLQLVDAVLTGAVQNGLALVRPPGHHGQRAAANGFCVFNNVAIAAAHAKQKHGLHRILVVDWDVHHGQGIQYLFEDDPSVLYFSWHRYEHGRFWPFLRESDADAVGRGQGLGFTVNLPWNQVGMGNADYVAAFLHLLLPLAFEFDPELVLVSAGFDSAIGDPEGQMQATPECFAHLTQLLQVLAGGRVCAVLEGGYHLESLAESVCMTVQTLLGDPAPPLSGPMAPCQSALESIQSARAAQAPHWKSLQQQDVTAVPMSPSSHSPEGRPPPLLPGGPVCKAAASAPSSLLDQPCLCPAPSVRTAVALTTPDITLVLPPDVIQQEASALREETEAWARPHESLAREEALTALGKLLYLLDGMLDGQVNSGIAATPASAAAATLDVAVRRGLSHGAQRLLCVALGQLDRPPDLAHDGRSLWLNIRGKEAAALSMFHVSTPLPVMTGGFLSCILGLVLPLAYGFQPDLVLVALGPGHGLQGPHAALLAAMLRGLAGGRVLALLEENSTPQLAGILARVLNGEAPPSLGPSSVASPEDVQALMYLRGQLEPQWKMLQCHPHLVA
# HDAC1, sequence (Q13547 whole entry): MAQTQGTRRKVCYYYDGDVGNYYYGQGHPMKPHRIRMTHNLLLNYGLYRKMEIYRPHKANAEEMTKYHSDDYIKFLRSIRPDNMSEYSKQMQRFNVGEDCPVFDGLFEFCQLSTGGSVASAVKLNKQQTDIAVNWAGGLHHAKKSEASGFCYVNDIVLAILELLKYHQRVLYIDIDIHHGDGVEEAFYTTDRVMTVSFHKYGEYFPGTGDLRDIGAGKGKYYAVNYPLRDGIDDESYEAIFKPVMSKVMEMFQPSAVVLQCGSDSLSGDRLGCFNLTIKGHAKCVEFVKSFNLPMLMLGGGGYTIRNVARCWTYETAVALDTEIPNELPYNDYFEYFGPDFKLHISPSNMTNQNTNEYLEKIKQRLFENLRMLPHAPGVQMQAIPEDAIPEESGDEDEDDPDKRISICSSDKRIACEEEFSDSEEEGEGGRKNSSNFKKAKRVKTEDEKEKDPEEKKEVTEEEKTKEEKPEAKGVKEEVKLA
# HDAC2, sequence (Q92769 whole entry): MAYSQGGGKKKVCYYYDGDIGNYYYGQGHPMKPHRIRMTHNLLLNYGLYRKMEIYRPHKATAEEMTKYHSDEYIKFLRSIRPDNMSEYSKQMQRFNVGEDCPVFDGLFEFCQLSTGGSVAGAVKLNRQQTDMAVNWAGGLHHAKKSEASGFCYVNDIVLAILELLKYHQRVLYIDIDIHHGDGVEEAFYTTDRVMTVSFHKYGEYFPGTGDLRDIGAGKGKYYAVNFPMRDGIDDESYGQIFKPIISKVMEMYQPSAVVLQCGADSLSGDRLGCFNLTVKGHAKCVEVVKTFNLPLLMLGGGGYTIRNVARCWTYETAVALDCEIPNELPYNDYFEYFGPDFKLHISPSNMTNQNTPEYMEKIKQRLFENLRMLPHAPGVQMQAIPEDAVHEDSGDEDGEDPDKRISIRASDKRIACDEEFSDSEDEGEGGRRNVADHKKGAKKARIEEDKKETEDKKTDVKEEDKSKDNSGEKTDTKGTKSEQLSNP
smiles,measurement,setting,value
C[C@@H](c1ccc(C(=O)Nc2ccc(F)cc2N)cc1)n1nc(-c2ccc(CN(C)C)cc2)ccc1=O [Compound I-1],IC50,HDAC1,57.6 ± 4.42 nM
same,IC50,SKM-1 cells,140 ± 8 nM
same,IC50,HDAC2,90 ± 6 nM
same,IC50,HDAC10,> 100000 nM
same,IC50,MV-4-11,0.088 ± 0.002 µM
same,IC50,OCI-AML3,0.121 ± 0.003 µM
same,IC50,OCI-LY-3,0.198 ± 0.048 µM
same,IC50,U-2932,0.214 ± 0.001 µM
same,IC50,HH,0.219 ± 0.093 µM
same,IC50,OCI-LY-10,0.297 ± 0.042 µM
same,IC50,Z138,0.363 ± 0.046 µM
same,IC50,CCRF-CEM,0.382 ± 0.067 µM
same,IC50,RS4; 11,0.412 ± 0.129 µM
same,IC50,U937,0.435 ± 0.254 µM
same,IC50,OPM-2,0.436 ± 0.222 µM
same,IC50,KARPAS-1106P,0.498 ± 0.009 µM
same,IC50,NOMO-1,0.523 ± 0.12 µM
same,IC50,SU-DHL-6,0.576 ± 0.066 µM
same,IC50,HDLM-2,0.647 ± 0.404 µM
same,IC50,H9,0.649 ± 0.044 µM
same,IC50,HuT78,0.769 ± 0.461 µM
same,IC50,TMD8,0.807 ± 0.142 µM
same,IC50,KG-1,0.95 ± 0.066 µM
same,IC50,CAKI-1,0.594 ± 0.011 µM
same,IC50,SNU-16,0.675 ± 0.064 µM
same,IC50,SNU-5,0.314 ± 0.011 µM
same,IC50,A2058,0.562 ± 0.011 µM
same,IC50,SK-MEL-2,0.799 ± 0.042 µM
same,relative tumor proliferation rate (T/C),[1],11.78%
